Reference: patent US20240246940A1, “HETEROARYL DERIVATIVE COMPOUND AND USE THEREOF” (VORONOI INC., priority 2021, published 2024)

Legend:
Format in all cases: cell-based
[1] = tested on: N-87 cells (HER2 overexpressing cell line); experiment: N-87 cell proliferation inhibitory activity (CellTiter-Glo, 72 hours)
Description: (§1) To evaluate the cell proliferation inhibitory activity of the compound according to the present invention on HER2 and EGFR kinases, the following method was performed using HER2 overexpressing cell lines (SK-BR-3, BT-474, and N-87) and EGFR expressing cell line (HaCaT).
(§2) McCOY'S 5A supplemented with 10% FBS was used for SK-BR-3 cells, RPMI-1640 medium supplemented with 20% FBS was used for BT-474 cancer cells, and RPMI-1640 medium supplemented with 10% FBS was used for N-87 cancer cells. DMEM supplemented with 10% FBS was used for HaCaT cells.
(§3) For SK-BR-3 cells, 5000 cells were aliquoted into each well of a white clear bottom 96 well plate (Corning) 48 hours before treatment with the compounds of Examples. For BT-474 cells, 5000 cells were aliquoted into each well of a white clear bottom 96 well plate (Corning) 48 hours before treatment with the compounds of Examples. For N-87 cells, 5000 cells were aliquoted into each well of a white clear bottom 96 well plate (Corning) 24 hours before treatment with the compounds of Examples. For HaCaT cells, 3000 cells were aliquoted into each well of a white clear bottom 96 well plate (Corning) 24 hours before treatment with the compounds of Examples. For SK-BR-3 cells and BT-474 cells, the compounds of Examples were diluted in dimethyl sulfoxide (three-fold dilution, a total of 11 concentrations) and injected each in an amount of 1 μl to a final concentration of 0.2 nM to 10 μM. For N-87 cells, the compounds of Examples were diluted in dimethyl sulfoxide (five-fold dilution, a total of 11 concentrations) and injected each in an amount of 0.5 μl to a final concentration of […] to 5 μM. For HaCaT cells, the compounds of Examples were diluted in dimethyl sulfoxide (three-fold dilution, a total of 11 concentrations) and injected each in an amount of 0.5 μl to a final concentration of 0.8 nM to 45 μM. For the measurement of living cells, the cells were stored at room temperature for 10 minutes using CellTiter-Glo cell viability reagent (Promega) after a certain period of time (SK-BR-3: 120 hours, BT-474: 120 hours, N-87: 72 hours, and HaCaT: 72 hours) post treatment with the compounds of Examples, and the luminescence intensity thereof was measured using a reader (SynergyNeo, Biotek). Each test was repeated three times.
(§4) The result values were calculated as a cell growth rate (%) compared to those of the control group. A graph was created using the GraphPad Prism version 5.0 program, and GI50 values were calculated.

[2] = tested on: BT-474 cells (HER2 overexpressing cell line); experiment: BT-474 cell proliferation inhibitory activity (CellTiter-Glo, 120 hours); conditions: Homo sapiens
Description: as §1, §2, §3, §4

[3] = tested on: HaCaT cells (EGFR expressing cell line); experiment: HaCaT cell proliferation inhibitory activity (CellTiter-Glo, 72 hours); conditions: Homo sapiens
Outline: (§5)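 Cells seeded 24 h (HaCaT 3000/well, N-87 5000/well) or 48 h (SK-BR-3, BT-474 5000/well) before 11-point dosing: 0.2 nM–10 μM (SK-BR-3, BT-474), […]–5 μM (N-87), 0.8 nM–45 μM (HaCaT). CellTiter-Glo luminescence read; GI50 from growth relative to control, triplicate.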

[4] = tested on: SK-BR-3 cells (HER2 overexpressing cell line); experiment: SK-BR-3 cell proliferation inhibitory activity (CellTiter-Glo, 120 hours); conditions: Homo sapiens
Outline: as §5

Row | GI50 [2] [µM] | GI50 [4] [µM] | SMILES | GI50 [1] [µM] | GI50 [3] [µM]
1 | ≤ 0.15 |  | C=CC(=O)N1CCC(Oc2cc3c(Nc4cc(-c5ccco5)ccc4OC)ncnc3cc2OC)[C@H](C)C1 (stereo in doubt) [Example 169, 1-((3R,4S)-4-((4-((5-(furan-2-yl)-2-methoxyphenyl)amino)-7-methoxy-quinazolin-6-yl)oxy)-3-methylpiperidin-1-yl)prop-2-en-1-one] | ≤ 0.15 | ≤ 0.15
2 | ≤ 0.15 |  | C=CC(=O)N1CCC(Oc2cc3c(Nc4cc(-c5ccc(F)c(NC(C)=O)c5F)ccc4OC)ncnc3cc2OC)CC1 [Example 1, N-(3′-((6-((1-acryloylpiperidin-4-yl)oxy)-7-methoxyquinazolin-4-yl)amino)-2,4-difluoro-4′-methoxy-[1,1′-biphenyl]-3-yl)acetamide] | ≤ 0.15 | > 1
3 | ≤ 0.15 |  | C=CC(=O)N1CCC(Oc2cc3c(Nc4cc(-c5ccc(F)c(NC(=O)C6CC6)c5F)ccc4OC)ncnc3cc2OC)CC1 [Example 2, N-(3'-((6-((1-acryloylpiperidin-4-yl)oxy)-7-methoxy-quinazolin-4-yl)amino)-2,4-difluoro-4′-methoxy-[1,11 biphenyl]-3-yl)cyclopropan-carboxamide] | ≤ 0.15 | > 1
4 | ≤ 0.15 |  | C=CC(=O)N1CC(Oc2cc3c(Nc4cc(-c5ccc(F)c(NC(=O)C6CC6)c5F)ccc4OC)ncnc3cc2OC)C1 [Example 3, N-(3′-((6-((1-acryloylazetidin-3-yl)oxy)-7-methoxy-quinazolin-4-yl)amino)-2,4-difluoro-4′-methoxy-[1,1′-biphenyl]-3-yl)cyclopropan-carboxamide] | ≤ 0.15 | 0.15 to 1
5 | ≤ 0.15 |  | C=CC(=O)N1CCC(Oc2cc3c(Nc4cc(-c5ccc(F)c(NC(=O)C6CC6)c5)ccc4OC)ncnc3cc2OC)CC1 [Example 4, N-(3′-((6-((1-acryloylpiperidin-4-yl)oxy)-7-methoxy-quinazolin-4-yl)amino)-4-fluoro-4′-methoxy-[1,1'-biphenyl]-3-yl)cyclopropan-carboxamide] | ≤ 0.15 | > 1
6 | ≤ 0.15 |  | C=CC(=O)N1CCC(Oc2cc3c(Nc4cc(-c5ccc(F)c(N6CC(F)(F)C6)c5)ccc4OC)ncnc3cc2OC)CC1 [Example 129, 1-(4-((4-((3′-(3,3-difluoroazetidin-1-yl)-4′-fluoro-4-methoxy-[1,1′-biphenyl]-3-yl)amino)-7-methoxy-quinazolin-6-yl)oxy)piperidin-1-yl)prop-2-en-1-one] | ≤ 0.15 | 0.15 to 1
7 |  | ≤ 0.15 | C=CC(=O)N1CCC(Oc2cc3c(Nc4cc(-c5ccc(F)c(N)c5)ccc4OC)ncnc3cc2OC)CC1 [Example 146, 1-(4-((4-((3′-amino-4′-fluoro-4-methoxy-[1,1′-biphenyl]-3-yl)amino)-7-methoxy-quinazolin-6-yl)oxy)piperidin-1-yl)prop-2-en-1-one] | ≤ 0.15 | > 1
8 | ≤ 0.15 |  | C=CC(=O)N1CC[C@H](Oc2cc3c(Nc4cc(-c5ccco5)ccc4OC)ncnc3cc2OC)[C@H](F)C1 [Example 154, 1-((3R,4S)-3-fluoro-4-((4-((5-(furan-2-yl)-2-methoxy-phenyl)amino)-7-methoxy-quinazolin-6-yl)oxy)piperidin-1-yl)prop-2-en-1-one] | ≤ 0.15 | ≤ 0.15
9 | ≤ 0.15 |  | C=CC(=O)N1CCC(Oc2cc3c(Nc4cc(-c5ccc(F)c(N(C)C)c5F)ccc4OC)ncnc3cc2OC)CC1 [Example 155, 1-(4-((4-((3′-(dimethylamino)-2′,4′-difluoro-4-methoxy-[1,1′-biphenyl]-3-yl)amino)-7-methoxy-quinazolin-6-yl)oxy)piperidin-1-yl)prop-2-en-1-one] | ≤ 0.15 | ≤ 0.15
10 |  | ≤ 0.15 | C=CC(=O)N1CCC(Oc2cc3c(Nc4cc(-c5ccc(F)cc5F)ccc4OC)ncnc3cc2O[C@@H]2CCOC2)CC1 [Example 281, (R)-1-(4-((4-((2′,4′-difluoro-4-methoxy-[1,1′-biphenyl]-3-yl)amino)-7-((tetrahydrofuran-3-yl)oxy)quinazolin-6-yl)oxy)piperidin-1-yl)prop-2-en-1-one] | ≤ 0.15 | ≤ 0.15
11 | ≤ 0.15 |  | COc1cc2ncnc(Nc3cc(-c4ccco4)ccc3OC)c2cc1NC(=O)/C=C/CN1CCN(C)CC1 [Example 314, (E)-N-(4-((5-(furan-2-yl)-2-methoxyphenyl)amino)-7-methoxyquinazolin-6-yl)-4-(4-methylpiperazin-1-yl)but-2-enamide] |  | ≤ 0.15
12 | ≤ 0.15 |  | COc1cc2ncnc(Nc3cc(-c4ccco4)ccc3OC)c2cc1NC(=O)/C=C/CN1CCOCC1 [Example 315, (E)-N-(4-((5-(furan-2-yl)-2-methoxyphenyl)amino)-7-methoxyquinazolin-6-yl)-4-morpholinobut-2-enamide] |  | ≤ 0.15
13 | ≤ 0.15 |  | COc1cc2ncnc(Nc3cc(-c4ccc(F)cc4F)ccc3OC)c2cc1NC(=O)/C=C/CN1CCOCC1 [Example 316, (E)-N-(4-((2′,4′-difluoro-4-methoxy-[1,1′-biphenyl]-3-yl)amino)-7-methoxyquinazolin-6-yl)-4-morpholinobut-2-enamide] |  | ≤ 0.15
14 | ≤ 0.15 |  | COc1cc2ncnc(Nc3cc(-c4ccc(F)cc4F)ccc3OC)c2cc1NC(=O)/C=C/CN1CCN(C)CC1 [Example 317, (E)-N-(4-((2′,4′-difluoro-4-methoxy-[1,1′-biphenyl]-3-yl)amino)-7-methoxyquinazolin-6-yl)-4-(4-methylpiperazin-1-yl)but-2-enamide] |  | ≤ 0.15
15 | 0.15 to 1 |  | COc1ccc(-c2ccc(F)cc2F)cc1Nc1ncnc2ccc(NC(=O)/C=C/CN(C)C)c(Cl)c12 [Example 320, (E)-N-(5-chloro-4-((2′,4′-difluoro-4-methoxy-[1,1′-biphenyl]-3-yl)amino)quinazolin-6-yl)-4-(dimethylamino)but-2-enamide] |  | 0.15 to 1
16 | > 1 |  | COc1ccc(-c2ccco2)cc1Nc1ncnc2ccc(NC(=O)/C=C/CN(C)C)c(Cl)c12 [Example 321, (E)-N-(5-chloro-4-((5-(furan-2-yl)-2-methoxyphenyl)amino)quinazolin-6-yl)-4-(dimethylamino)but-2-enamide] |  | 0.15 to 1
17 | > 1 |  | C=CC(=O)N1CCC2(CC1)CN(c1cc3c(Nc4cc(-c5ccco5)ccc4OC)ncnc3cc1OC)C2 [Example 324, 1-(2-(4-((5-(furan-2-yl)-2-methoxyphenyl)amino)-7-methoxyquinazolin-6-yl)-2,7-diazaspiro[3.5]nonan-7-yl)prop-2-en-1-one] |  | 0.15 to 1
18 | 0.15 to 1 |  | C=CC(=O)N1CCC2(CC1)CN(c1cc3c(Nc4cc(-c5ccc(F)cc5F)ccc4OC)ncnc3cc1OC)C2 [Example 325, 1-(2-(4-((2′,4′-difluoro-4-methoxy-[1,1′-biphenyl]-3-yl)amino)-7-methoxyquinazolin-6-yl)-2,7-diazaspiro[3.5]nonan-7-yl)prop-2-en-1-one] |  | 0.15 to 1
19 | > 1 |  | C=CC(=O)N1CC2(C1)CN(c1cc3c(Nc4cc(-c5ccco5)ccc4OC)ncnc3cc1OC)C2 [Example 326, 1-(6-(4-((5-(furan-2-yl)-2-methoxyphenyl)amino)-7-methoxyquinazolin-6-yl)-2,6-diazaspiro[3.3]heptan-2-yl)prop-2-en-1-one] |  | 0.15 to 1

Row | SMILES | GI50 [2] [µM] | GI50 [4] [µM] | GI50 [1] [µM] | GI50 [3] [µM]
20 | COc1cc2ncnc(Nc3cc(-c4ccco4)ccc3OC)c2cc1NC(=O)/C=C/CN1C2COCC1C2 [Example 318, (E)-4-(3-oxa-6-azabicyclo[3.1.1]heptan-6-yl)-N-(4-((5-(furan-2-yl)-2-methoxyphenyl)amino)-7-methoxyquinazolin-6-yl)but-2-enamide] | ≤ 0.15 |  |  | ≤ 0.15
21 | COc1cc2ncnc(Nc3cc(-c4ccc(F)cc4F)ccc3OC)c2cc1NC(=O)/C=C/CN1C2COCC1C2 [Example 319] | ≤ 0.15 |  |  | ≤ 0.15
